Results as given in patent publication US7553862B2, “4-amino-1,5-substituted-1,5-dihydro-imidazol-2-ones” (Hoffmann-La Roche Inc., priority 2006, dated 2009).

Target: T1, mGlyT-1b (Mus musculus, UniProt P28571)
T1 construct: host or cells: Flp-in-CHO
T1 sequence (P28571 1-651 isoform P28571-2): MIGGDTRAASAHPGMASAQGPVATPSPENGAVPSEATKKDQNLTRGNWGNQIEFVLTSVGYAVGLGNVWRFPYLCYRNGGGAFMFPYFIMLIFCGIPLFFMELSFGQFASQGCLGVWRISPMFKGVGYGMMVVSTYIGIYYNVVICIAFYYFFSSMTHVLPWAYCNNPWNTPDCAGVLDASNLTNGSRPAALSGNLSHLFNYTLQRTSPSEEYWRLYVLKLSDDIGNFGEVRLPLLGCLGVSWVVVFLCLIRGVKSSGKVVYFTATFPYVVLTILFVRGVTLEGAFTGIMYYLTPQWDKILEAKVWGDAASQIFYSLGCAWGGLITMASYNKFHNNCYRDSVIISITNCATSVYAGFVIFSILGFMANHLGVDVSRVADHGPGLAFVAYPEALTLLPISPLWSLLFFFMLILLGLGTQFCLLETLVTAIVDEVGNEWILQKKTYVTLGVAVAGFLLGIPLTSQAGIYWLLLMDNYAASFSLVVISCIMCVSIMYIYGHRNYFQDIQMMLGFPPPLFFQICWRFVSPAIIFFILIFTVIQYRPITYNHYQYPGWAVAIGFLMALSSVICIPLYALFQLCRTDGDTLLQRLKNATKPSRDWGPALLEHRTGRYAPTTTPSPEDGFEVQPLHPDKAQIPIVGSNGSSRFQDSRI
Assay: Glycine uptake inhibition assay (mGlyT-1b)
Assay type: cell-based
Conditions: [3H]-glycine uptake in Flp-in-CHO cells transfected with mGlyT-1b cDNA; read-out: IC50 (μM) at GlyT-1
Experimental: DMEM complete medium: Nutrient mixture F-12 (Gibco Life-technologies), fetal bovine serum (FBS) 5%, (Gibco life technologies), Penicillin/Streptomycin1% (Gibco life technologies), Hygromycin 0.6 mg/ml (Gibco life technologies), Glutamine 1 mM Gibco life technologies) Uptake buffer (UB): 150 mM NaCl, 10 mM Hepes-Tris, pH 7.4, 1 mM CaCl2, 2.5 mM KCl, 2.5 mM MgSO4, 10 mM (+) D-glucose.
Flp-in™-CHO (Invitrogen Cat n° R758-07) cells stably transfected with mGlyT1b cDNA.
Glycine Uptake Inhibition Assay (mGlyT-1b)
On day 1 mammalian cells, (Flp-in™-CHO), transfected with mGlyT-1b cDNA, were plated at the density of 40,000 cells/well in complete F-12 medium, without hygromycin in 96-well culture plates. On day 2, the medium was aspirated and the cells were washed twice with uptake buffer (UB). The cells were then incubated for 20 min at 22° C. with either (i) no potential competitor, (ii) 10 mM non-radioactive glycine, (iii) a concentration of a potential inhibitor. A range of concentrations of the potential inhibitor was used to generate data for calculating the concentration of inhibitor resulting in 50% of the effect (e.g. IC50, the concentration of the competitor inhibiting glycine uptake of 50%). A solution was then immediately added containing [^3H]-glycine 60 nM (11-16 Ci/mmol) and 25 μM non-radioactive glycine. The plates were incubated with gentle shaking and the reaction was stopped by aspiration of the mixture and washing (three times) with ice-cold UB. The cells were lysed with scintillation liquid, shaken 3 hours and the radioactivity in the cells was counted using a scintillation counter.

Row | SMILES | IC50 [µM]
1 | O=C1N=C(NCc2ccccc2)C(c2ccccc2)N1c1ccc(Cl)cc1 (racemic) [Example 10, (Rac)-4-benzylamino-1-(4-chloro-phenyl)-5-phenyl-1,5-dihydro-imidazol-2-one] | 0.062
2 | Cc1ccc(C2C(NCc3ccccc3)=NC(=O)N2c2ccc(Cl)c(Cl)c2)cc1 (racemic) [Example 24, (Rac)-4-benzylamino-1-(3,4-dichloro-phenyl)-5-p-tolyl-1,5-dihydro-imidazol-2-one] | 0.04
3 | Cc1ccc(C2C(NCc3ccccc3)=NC(=O)N2c2ccc(Cl)c(Cl)c2)cc1C (racemic) [Example 25, Rac-4-benzylamino-1-(3,4-dichloro-phenyl)-5-(3,4-dimethyl-phenyl)-1,5-dihydro-imidazol-2-one] | 0.057
4 | O=C1N=C(NCc2ccccc2)C(c2ccc(Cl)cc2)N1c1ccc(Cl)c(Cl)c1 (racemic) [Example 28, (Rac)-4-benzylamino-5-(4-chloro-phenyl)-1-(3,4-dichloro-phenyl)-1,5-dihydro-imidazol-2-one] | 0.035
5 | O=C1N=C(NCc2ccccc2)C(c2ccc(F)cc2)N1c1ccc(Cl)c(Cl)c1 (racemic) [Example 43, (Rac)-4-benzylamino-1-(3,4-dichloro-phenyl)-5-(4-fluoro-phenyl)-1,5-dihydro-imidazol-2-one] | 0.03
6 | O=C1N=C(NCc2ccccc2)C(c2ccc(F)cc2)N1c1ccc(F)c(Cl)c1 (racemic) [Example 44, Rac-4-Benzylamino-1-(3-chloro-4-fluoro-phenyl)-5-(4-fluoro-phenyl)-1,5-dihydro-imidazol-2-one] | 0.058
7 | O=C1N=C(NCc2ccccc2)[C@@H](c2ccccc2)N1c1ccc(Cl)cc1 (single isomer, unassigned) [Example 50, (−)-4-Benzylamino-1-(4-chloro-phenyl)-5-phenyl-1,5-dihydro-imidazol-2-one] | 0.062

Now from value to molecule:

Row | IC50 [µM] | SMILES
8 | 0.076 | O=C1N=C(NCc2ccccc2)C(c2ccccc2)N1c1ccc(Cl)c(Cl)c1 (racemic) [Example 13, Rac-4-benzylamino-1-(3,4-dichloro-phenyl)-5-phenyl-1,5-dihydro-imidazol-2-one]
9 | 0.007 | O=C1N=C(NCc2ccc(F)cc2)C(c2ccccc2)N1c1ccc(Cl)c(Cl)c1 (racemic) [Example 51, Rac-1-(3,4-dichloro-phenyl)-4-(4-fluorobenzylamino)-5-phenyl-1,5-dihydro-imidazol-2-one]
10 | 0.082 | CC(C)CCNC1=NC(=O)N(c2ccc(Cl)c(Cl)c2)C1c1ccccc1 (racemic) [Example 53, Rac-1-(3,4-dichloro-phenyl)-4-(3-methyl-butylamino)-5-phenyl-1,5-dihydroimidazol-2-one]
11 | 0.077 | CCCCCCNC1=NC(=O)N(c2ccc(Cl)c(Cl)c2)C1c1ccccc1 (racemic) [Example 57, (Rac)-1-(3,4-dichloro-phenyl)-4-hexylamino-5-phenyl-1,5-dihydro-imidazol-2-one]
12 | 0.024 | O=C1N=C(NCC2CCCCC2)C(c2ccccc2)N1c1ccc(Cl)c(Cl)c1 (racemic) [Example 58, (Rac)-4-(cyclohexylmethyl-amino)-1-(3,4-dichloro-phenyl)-5-phenyl-1,5-dihydro-imidazol-2-one]
